Results on six compounds are retold here after article PMC5820653, “Detection of a Peptide Biomarker by Engineered Yeast Receptors” (ACS Synthetic Biology, 2018).

Ends that are not written are not given here.

Test [1] addresses T1, Ste2p (wild type) (Saccharomyces cerevisiae, UniProt D6VTK4).
T1 construct: expressed in transfected cells; host or cells: S. cerevisiae YJB015 (MPY578t5 ste2::LEU2, fus1::yeGFP, TRP1::mKate) carrying plasmid pJB036
T1 sequence (D6VTK4 1-431): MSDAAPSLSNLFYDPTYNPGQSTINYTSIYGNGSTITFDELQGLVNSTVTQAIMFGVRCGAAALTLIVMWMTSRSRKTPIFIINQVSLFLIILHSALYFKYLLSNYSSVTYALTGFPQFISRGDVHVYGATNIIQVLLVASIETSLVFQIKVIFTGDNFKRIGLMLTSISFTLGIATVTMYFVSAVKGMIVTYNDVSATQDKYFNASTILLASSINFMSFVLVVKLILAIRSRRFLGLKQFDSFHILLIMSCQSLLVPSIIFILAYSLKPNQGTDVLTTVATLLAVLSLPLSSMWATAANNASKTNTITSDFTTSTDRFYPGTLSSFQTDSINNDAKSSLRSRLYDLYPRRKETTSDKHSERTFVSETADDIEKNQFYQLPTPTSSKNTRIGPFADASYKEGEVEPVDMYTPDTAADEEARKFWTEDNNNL
The test is described as follows: Yeast GFP/RFP reporter response of native receptor Ste2p to peptide ligand (flow cytometry). In kind it is cell-based. How it is done: (§1) Yeast were grown overnight at 30 °C and 225 rpm in 250 mL Erlenmeyer flasks and then diluted to an OD600 = 0.1 in the appropriate medium, typically CSM-Ura or SDCAA-Ura, or commercially sourced pooled human urine. Immediately after dilution, the peptide ligand was added. The culture was incubated for 2.5 h at 30 °C with 225 rpm shaking. Cells were centrifuged at 2000g for 5 min and supernatant was removed. Cells were resuspended in 1x PBS in preparation for flow cytometry.
Analytical flow cytometry was performed with the BD LSR II (BD Biosciences, San Jose, USA); yEGFP was read on the Alexa-Flour 488 channel, and mKate was read on the PE-Texas Red channel. Receptor output was measured by dividing the mean GFP fluorescence by the mean RFP fluorescence for a population. EC50 values were calculated by fitting the receptor output to a four-parameter logistic curve, and determining which ligand concentration produced an output equivalent to half of the receptor’s maximum output. […]
(§2) Data were fit to the Michaelis–Menten equation: [drawing 4] where the fluorescent receptor output, y, to a given concentration x of ligand, was determined by the following equation: [drawing 5] where GFP is downstream of the receptor pathway and mKate is constitutively expressed (see Strain and Plasmid Construction, Methods Section).
(In flow cytometry, cells or beads pass a laser one at a time.)

Test [2] deals with T2, Ste2p mutant receptor Cys1H4 (M54I) (Saccharomyces cerevisiae, UniProt D6VTK4, M54I).
T2 construct: expressed in transfected cells; host or cells: S. cerevisiae yJB013 (ste2-deleted reporter strain), p416GPD plasmid
T2 sequence (D6VTK4 whole entry M54I): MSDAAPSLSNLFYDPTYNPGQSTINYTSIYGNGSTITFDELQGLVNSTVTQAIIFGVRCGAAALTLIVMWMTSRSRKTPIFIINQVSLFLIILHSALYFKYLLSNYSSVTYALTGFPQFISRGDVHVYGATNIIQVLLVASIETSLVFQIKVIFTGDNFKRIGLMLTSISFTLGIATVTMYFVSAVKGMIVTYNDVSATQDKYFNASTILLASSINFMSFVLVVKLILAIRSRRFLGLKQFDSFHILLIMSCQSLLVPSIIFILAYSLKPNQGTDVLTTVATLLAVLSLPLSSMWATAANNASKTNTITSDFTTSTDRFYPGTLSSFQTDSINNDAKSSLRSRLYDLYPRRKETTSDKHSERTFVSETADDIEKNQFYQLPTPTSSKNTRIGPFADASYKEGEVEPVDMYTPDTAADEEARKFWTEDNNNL
The test can be described thus: cell-based. In kind it is cell-based. How it is done:
as §1
(§3) Analytical flow cytometry was performed with the BD LSR II (BD Biosciences, San Jose, USA); yEGFP was read on the Alexa-Flour 488 channel, and mKate was read on the PE-Texas Red channel. Receptor output was measured by dividing the mean GFP fluorescence by the mean RFP fluorescence for a population. EC50 values were calculated by fitting the receptor output to a four-parameter logistic curve, and determining which ligand concentration produced an output equivalent to half of the receptor’s maximum output.
(§4) The dose response curves were modeled to fit the following four-parameter logistic curve: [drawing 2] where a is the minimum value, b is the maximum value, c is the EC50, and d is the hill coefficient. The fluorescent receptor output, y, to a given concentration x of ligand, was determined by the following equation: [drawing 3] where GFP is downstream of the receptor pathway and mKate is constitutively expressed (see Strain and Plasmid Construction, Methods Section).
as §2

The target of test [3] is T3, Ste2p mutant receptor Cys1H5 (M54I, C59S) (Saccharomyces cerevisiae, UniProt D6VTK4, C59S/M54I).
T3 construct: expressed in transfected cells; host or cells: S. cerevisiae yJB013 (ste2-deleted reporter strain), p416GPD plasmid
T3 sequence (D6VTK4 whole entry M54I/C59S): as the sequence (D6VTK4 whole entry M54I) above, with C59S counted along it
The test is described as follows: cell-based. In kind it is cell-based. As for the experimental part:
as §1, §3, §4, §2

In test [4] the target is T4, Ste2p mutant receptor Cys5R7 (Saccharomyces cerevisiae, UniProt D6VTK4, D3N/K225T/L228F/M218T/M54I/N158Y).
T4 construct: expressed in transfected cells; host or cells: S. cerevisiae yJB013 (ste2-deleted reporter strain), p416GPD plasmid
T4 sequence (D6VTK4 other isoform, or with tags, fused parts or gaps D3N/M54I/N158Y/M218T/K225T/L228F): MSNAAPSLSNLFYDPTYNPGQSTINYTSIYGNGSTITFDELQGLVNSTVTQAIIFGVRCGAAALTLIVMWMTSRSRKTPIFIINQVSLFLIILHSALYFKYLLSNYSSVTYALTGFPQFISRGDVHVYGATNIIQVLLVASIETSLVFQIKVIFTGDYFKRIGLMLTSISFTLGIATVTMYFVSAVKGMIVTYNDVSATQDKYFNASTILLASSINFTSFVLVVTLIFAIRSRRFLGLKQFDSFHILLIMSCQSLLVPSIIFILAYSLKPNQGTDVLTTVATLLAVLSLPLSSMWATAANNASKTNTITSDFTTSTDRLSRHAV
The test is described as follows: cell-based. How it is done: as §1, §3, §4, §2

Test [5] has as its target T5, Ste2p mutant receptor Cys2K2 (Saccharomyces cerevisiae, UniProt D6VTK4, M218K/M54I/Q272Y).
T5 construct: expressed in transfected cells; host or cells: S. cerevisiae yJB013 (ste2-deleted reporter strain), p416GPD plasmid
The test is described as follows: cell-based. As for the experimental part:
as §1, §3, §4, §2

Test [6] addresses T6, Ste2p mutant receptor Cys5R2 (Saccharomyces cerevisiae, UniProt D6VTK4, F55L/K225T/M218T/M54I/N158Y/R74K/Y26F).
T6 construct: expressed in transfected cells; host or cells: S. cerevisiae yJB013 (ste2-deleted reporter strain), p416GPD plasmid
The test can be described thus: cell-based. How it is done:
as §1, §3, §4, §2

Test [7] deals with T7, Ste2p mutant receptor Cys4L3 (Saccharomyces cerevisiae, UniProt D6VTK4, K225T/M218T/M54I/N158F/R74K/T167R/Y26F).
T7 construct: expressed in transfected cells; host or cells: S. cerevisiae yJB013 (ste2-deleted reporter strain), p416GPD plasmid
T7 sequence (D6VTK4 1-319 Y26F/M54I/R74K/N158F/T167R/M218T/K225T): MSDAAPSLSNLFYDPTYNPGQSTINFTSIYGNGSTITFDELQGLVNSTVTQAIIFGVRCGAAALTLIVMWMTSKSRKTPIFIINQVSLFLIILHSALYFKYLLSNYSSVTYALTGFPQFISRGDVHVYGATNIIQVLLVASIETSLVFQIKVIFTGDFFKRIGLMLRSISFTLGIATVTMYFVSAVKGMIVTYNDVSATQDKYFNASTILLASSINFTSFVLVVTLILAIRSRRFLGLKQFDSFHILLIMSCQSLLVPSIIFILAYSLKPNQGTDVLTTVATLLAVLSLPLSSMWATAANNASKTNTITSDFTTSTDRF
The test can be described thus: cell-based. As for the experimental part: as §1, §3, §4, §2

Test [8] has as its target T8, Ste2p mutant receptor Cys2K3 (Saccharomyces cerevisiae, UniProt D6VTK4, K225T/M218T/M54I/N158Y/S356T).
T8 construct: expressed in transfected cells; host or cells: S. cerevisiae yJB013 (ste2-deleted reporter strain), p416GPD plasmid
The test is described as follows: cell-based. As for the experimental part: as §1, §3, §4, §2

For test [9], the target named is T9, Ste2p mutant receptor Cys5R9 (Saccharomyces cerevisiae, UniProt D6VTK4, K225T/L228F/M218T/M54I/N158F/R74K/S121R/T167R/Y26F).
T9 construct: expressed in transfected cells; host or cells: S. cerevisiae yJB013 (ste2-deleted reporter strain), p416GPD plasmid
T9 sequence (D6VTK4 1-319 Y26F/M54I/R74K/S121R/N158F/T167R/M218T/K225T/L228F): as the sequence (D6VTK4 1-319 Y26F/M54I/R74K/N158F/T167R/M218T/K225T) above, with S121R, L228F counted along it
The test is described as follows: cell-based. How it is done: as §1, §3, §4, §2

For test [10], the target named is T4, Ste2p mutant receptor Cys5R7. The test is described as follows: Receptor Cys5R7 response in trypsinized pooled human urine. In kind it is cell-based. To be noted: 500 μM ligand; pooled human urine digested with trypsin (50% Tryp-LE, 37 °C overnight, boiled); n = 3. How it is done:
as §1, §3
(§5) When trypsinized urine was used as the sample matrix, urine was mixed with Tryp-LE Express (Life Technologies, Grand Island, USA) to a final concentration of 50%. Mixtures were incubated at 37 °C overnight. Trypsin was inactivated by boiling the samples at 99 °C for 10 min. Samples were stored at −80 °C until assayed.

In test [11] the target is T9, Ste2p mutant receptor Cys5R9. The test can be described thus: Receptor Cys5R9 response in trypsinized pooled human urine. The note with it: 500 μM ligand; pooled human urine digested with trypsin (50% Tryp-LE, 37 °C overnight, boiled); n = 3. In kind it is cell-based. How it is done:
as §1, §3, §5

Test [12] has as its target T6, Ste2p mutant receptor Cys5R2. The test is described as follows: Receptor Cys5R2 response in trypsinized pooled human urine. In kind it is cell-based. To be noted: 500 μM ligand; pooled human urine digested with trypsin (50% Tryp-LE, 37 °C overnight, boiled); n = 3. As for the experimental part:
as §1, §3, §5

In test [13] the target is T7, Ste2p mutant receptor Cys4L3. The test can be described thus: Receptor Cys4L3 response in trypsinized pooled human urine. In kind it is cell-based. To be noted: 500 μM ligand; pooled human urine digested with trypsin (50% Tryp-LE, 37 °C overnight, boiled); n = 3. As for the experimental part:
as §1, §3, §5

In test [14] the test system is Round 3 Ste2p mutant receptors. The test can be described thus: Counter-sorting for specificity: round 3 Ste2p mutants evolved for Variant 56. It is filed as cell-based, Saccharomyces cerevisiae. To be noted: library sorted with 100 nM Variant 56, counter-sorted against 100 nM α-factor; Supplementary Figure 1. As for the experimental part: Specificity can be evolved
Supplementary Figure 1- Receptors can be counter-sorted against alpha-factor to increase specificity towards the target ligand- Variant […]
Variant 56 (sequence: […]), which contains a single-amino acid substitution compared to α-factor. In round 1, error prone PCR was performed on Ste2p to create a library of mutant receptors that were subjected to sorting with 100 nM Variant 56. The best mutant isolated from this sort was re-mutagenized to create a new library. The new library was sorted in round 2 with 100 nM Variant 56, and did show an improvement in detecting Variant 56 (panel a). In round 3, the sorted library from round 2 was screened […]
(also on this page, place not known: 0 1 2 3 4 Ste2p 1 2 Fold Increase Over Inac ve Receptor (GFP/RFP) Var. 56 0 1 2 3 4 Ste2p 1 2 3* Fold Increase Over Inac ve Receptor (GFP/RFP) α-factor 0.0 0.2 0.4 0.6 0.8 1.0 Ste2p 1 2 3* Rela ve Ac va on (Var. 56/α-factor) Rounds of Mutagenesis & Screening (a) (c) (b)) […]
(1 picture or pasted object on this page, not shown here)

T8 sequence (D6VTK4 whole entry M54I/N158Y/M218T/K225T/S356T): as the sequence (D6VTK4 whole entry M54I) above, with N158Y, M218T, K225T, S356T counted along it
T5 sequence (D6VTK4 whole entry M54I/M218K/Q272Y): as the sequence (D6VTK4 whole entry M54I) above, with M218K, Q272Y counted along it
T6 sequence (D6VTK4 1-319 Y26F/M54I/F55L/R74K/N158Y/M218T/K225T): as the sequence (D6VTK4 1-319 Y26F/M54I/R74K/N158F/T167R/M218T/K225T) above, with F55L, F158Y, R167T counted along it

The term EC50 denotes the concentration that produces a half-maximal response. Read a high EC50 as weaker potency. On to `CSCC[C@H](NC(=O)[C@@H]1CCCN1C(=O)[C@H](CCC(N)=O)NC(=O)CNC(=O)[C@@H]1CCCN1C(=O)[C@H](CCCCN)NC(=O)[C@H](CC(C)C)NC(=O)[C@H](CCC(N)=O)NC(=O)[C@H](CC(C)C)NC(=O)[C@H](Cc1c[nH]c2ccccc12)NC(=O)[C@H](Cc1c[nH]cn1)NC(=O)[C@@H](N)Cc1c[nH]c2ccccc12)C(=O)N[C@@H](Cc1ccc(O)cc1)C(N)=O` [α-factor amidated, reference compound], for which the 50% effective concentration (EC50) in test [1] (log10 of EC50 in M ± error, 4-parameter logistic fit of GFP/RFP output, 2.5 h, 30 °C, flow cytometry, Supplementary Table 1) was 229 nM; in test [2], 50.1 nM; in test [3] it was 58.9 nM; in [4] it was 6.31 nM; in test [5], 70.8 nM; in test [6], 9.12 nM. Besides, the results for the 50% effective concentration (EC50) in test [7] and in test [8] were 6.76 nM and 58.9 nM, respectively.

With ALALKPGEPMY [Cys2], the concentration giving a half-maximal response (EC50) is 316 nM in [5] and 117 nM in test [8].

As for ALDFAVGEPMK-NH2 [Cys5 amidated], the half-maximal effective concentration (EC50) in test [2] is 158000 nM; in [3], 234000 nM; in test [4], 2690 nM; in [5], 81300 nM; in test [6], 4900 nM; in test [7] it was 3470 nM. For the same compound, the figures for the EC50 in [9] and in test [8] were 3470 nM and 6170 nM, respectively.

As for “ALDFAVGEYNK-NH2 [Cys7 amidated, C-terminally amidated cystatin C tryptic peptide Cys7]”, the “Ligand concentration at which the receptor responds (sensitivity)” value in test [1] (as stated in text / figure legend) came out at 1 mM; in [2] (Supplementary Figure 3C legend) it was 1 mM; in [3] (Supplementary Figure 3C legend), 1 mM; in test [4], 50 µM; in test [6], 100 µM; in test [7] (Cys4 value with a new stock of Cys4 peptide), 100 µM. In addition, the “Ligand concentration at which the receptor responds (sensitivity)” value in test [9] came to 500 µM. The “Detection of ligand in pooled human urine” value in [10], in test [11], in [12] and in [13] was “able to detect” each time. This compound registered an Improvement in sensitivity in [4] (receptor Cys5R7 versus Ste2p, same ligand) of 20 fold.

For HALALKPGEPMY [Cys1], the half-maximal effective concentration (EC50) is 141 nM in test [2] and 129 nM in test [3].

In the case of “WHYLQLKPGQPMY [Variant 56, α-factor variant with a single-amino acid substitution]”, the “Activation of round 3 mutants (fold increase GFP/RFP; relative activation Var. 56/α-factor)” value in test [14] is on record as “preferentially activated”.
